# Target: FABP5 (Homo sapiens, UniProt Q01469)
# Assay: FABP5 TdCD binding affinity
# Conditions: not given
# Sequence of FABP5 (Q01469 whole entry): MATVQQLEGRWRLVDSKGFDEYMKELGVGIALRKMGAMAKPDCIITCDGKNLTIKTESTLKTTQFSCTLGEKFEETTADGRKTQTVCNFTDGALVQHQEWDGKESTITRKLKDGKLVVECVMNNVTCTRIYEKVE
row,SMILES,Kd
1,"O=C(c1nc2ccccc2nc1O)N1CCC[C@H]1Cc1cccc(Cl)c1 [Compound 8-8, (S)-(2-(3-chlorobenzyl)pyrrolidin-1-yl)(3-hydroxyquinoxalin-2-yl)methanone]",0.5 µM

# Target: FABP4 (Homo sapiens, UniProt P15090)
# Assay: TdF-based ligand binding affinity (FABP inhibitory activity assay)
# Conditions: TdF-based ligand binding affinity constant
# Source text: Theoretical basis for TdF-based ligand binding affinity constant
# The derivation of TdF-based ligand binding affinity constant (Kd) followed closely those previously formulated by Brandts and Lin, Biochemistry 29 (1990) 6927-6940. In brief, the binding constant of the ligand at the Tm is expressed as below: […]
# where T0 is the midpoint of unfolding for unliganded protein and Tm is the midpoint of unfolding in presence of ligand. [LTm] is free ligand at Tm. The ΔHu and ΔCpu are the enthalpy of unfolding and heat capacity change of unfolding for the protein respectively. The ΔCPu is proportional to the size of protein and is an approximate quantity in the above equation (empirically, ΔCpu=(MW of protein/115)*14 cal/mol*K). Following algorithm derived by Mayhood et al, (Analytical Biochemistry 345 (2005) 187-197), the T0 and ΔHu can be determined separately from nonlinear regression fitting the temperature dependent protein alone curve to the following equation: […]
# The nonlinear regression fitting in general readily reaches convergence by properly constraining the initial values for the fitting parameters (e.g. the initial “guess” for the ΔHu was constrained to 120 kcal/mol; initial Yn and mr, were set to 1 and zero to best represent the melting curve along the low temperature region; negative slope of −0.5 was initially chosen for mu; initial Tm was also constrained to 50° C.).
# (see Brandts et al and Mayhood et al, shown above) where ΔHL (T) is the van't Hoff enthalpy of ligand binding at temperature T and ΔCpL is the heat capacity upon ligand binding. For simplicity, the ΔCpL and ΔHL (T) were set to zero and −7 kcal/mol respectively. (The ΔCpL accounts for minimal portion of total protein-ligand binding energetics and is therefore set to zero (For example, see Hossein Naghibi et al, Proc. Natl. Acad. Sci. 92, 5597-5599 (1995), where ΔCpL was estimated to ˜2% of ΔHL at 25° C. obtained from calorimetric study of binding RNase A and 2′-CMP)).
# Sequence of FABP4 (P15090 whole entry): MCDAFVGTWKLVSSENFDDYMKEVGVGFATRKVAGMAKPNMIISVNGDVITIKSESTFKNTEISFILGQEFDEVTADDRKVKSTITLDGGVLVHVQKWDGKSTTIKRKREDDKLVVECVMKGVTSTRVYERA
row,SMILES,Kd
1,"O=C(c1nc2ccccc2nc1O)N1CCCCC1Cc1cccc(F)c1 (racemic) [Compound 1-74, (+/−)-[2-(3-Fluorobenzyl)piperidin-1-yl](3-hydroxyquinoxalin-2-yl)methanone]",4.4 µM
2,"Cc1ccc(CC2CCCN2C(=O)c2nc3ccccc3nc2O)cc1C (racemic) [Compound 1-42, (+/−)-[2-(3,4-Dimethylbenzyl)pyrrolidin-1-yl](3-hydroxyquinoxalin-2-yl)methanone]",1.34 µM
3,"O=C(c1nc2ccc(Cl)cc2nc1O)N1CCCC1Cc1cccc(Cl)c1 (racemic) [Compound 1-10, (+/−)-(6-Chloro-3-hydroxyquinoxalin-2-yl)[2-(3-chlorobenzyl)pyrrolidin-1-yl]methanone]",0.25 µM
4,"O=C(c1nc2ncccc2nc1O)N1CCCC1Cc1cccc(Cl)c1 (racemic) [Compound 1-32, (+/−)-[2-(3-Chlorobenzyl)pyrrolidin-1-yl](2-hydroxypyrido[2,3-b]pyrazin-3-yl)methanone]",0.3 µM
5,"O=C(c1nc2ccc(OC(F)(F)F)cc2nc1O)N1CCCC1Cc1cccc(Cl)c1 (racemic) [Compound 1-21, (+/−)-[2-(3-Chlorobenzyl)pyrrolidin-1-yl][3-hydroxy-6-(trifluoromethoxy)quinoxalin-2-yl]methanone]",0.22 µM
6,"O=C(c1nc2cc(F)ccc2nc1O)N1CCCC1Cc1cccc(Cl)c1 (racemic) [Compound 1-3, (+/−)-[2-(3-Chlorobenzyl)pyrrolidin-1-yl](7-fluoro-3-hydroxyquinoxalin-2-yl)methanone]",0.3 µM
7,"O=C(c1nc2ccc(F)cc2nc1O)N1CCCC1Cc1cccc(Cl)c1 (racemic) [Compound 1-4, (+/−)-[2-(3-Chlorobenzyl)pyrrolidin-1-yl](6-fluoro-3-hydroxyquinoxalin-2-yl)methanone]",0.18 µM
8,"O=C(c1nc2ccccc2nc1O)N1CCCC1COc1ccc(F)c(Cl)c1 (racemic) [Compound 1-64, (+/−)-{2-[(3-Chloro-4-fluorophenoxy)methyl]pyrrolidin-1-yl}(3-hydroxyquinoxalin-2-yl)methanone]",15.1 µM
9,"O=C(c1nc2cccc(Cl)c2nc1O)N1CCCC1Cc1cccc(Cl)c1 (racemic) [Compound 1-11, (+/−)-(5-Chloro-3-hydroxyquinoxalin-2-yl)[2-(3-chlorobenzyl)pyrrolidin-1-yl]methanone]",0.003 µM
10,"O=C(c1nc2c(Cl)cccc2nc1O)N1CCCC1Cc1cccc(Cl)c1 (racemic) [Compound 1-8, (+/−)-(8-Chloro-3-hydroxyquinoxalin-2-yl)[2-(3-chlorobenzyl)pyrrolidin-1-yl]methanone]",0.11 µM
11,"O=C(c1nc2ccccc2nc1O)N1CCC[C@H]1CNc1ccccc1 [Compound 1-65, (S)-(3-Hydroxyquinoxalin-2-yl){2-[(phenylamino)methyl]pyrrolidin-1-yl}methanone]",22.7 µM
12,"O=C(c1nc2cc(SC(F)(F)F)ccc2nc1O)N1CCCC1Cc1cccc(Cl)c1 (racemic) [Compound 1-22, (+/−)-[2-(3-Chlorobenzyl)pyrrolidin-1-yl][3-hydroxy-7-(trifluoromethylthio]quinoxalin-2-yl)methanone]",0.024 µM
13,"O=C(c1nc2ccccc2nc1O)N1CCCCC1Cc1ccccc1 (racemic) [Compound 1-72, (+/−)-(2-Benzylpiperidin-1-yl)(3-hydroxyquinoxalin-2-yl)methanone]",14.2 µM
14,"O=C(c1nc2ccc(S(=O)(=O)C(F)(F)F)cc2nc1O)N1CCCC1Cc1cccc(Cl)c1 (racemic) [Compound 1-25, (+/−)-[2-(3-Chlorobenzyl)pyrrolidin-1-yl][3-hydroxy-6-(trifluoromethylsulfonyl)quinoxalin-2-yl]methanone]",0.1 µM

# The remaining lines, values ahead:
row,Kd,SMILES
1,0.3 µM,"O=C(c1nc2ccccc2nc1O)N1CCC[C@H]1Cc1cccc(Cl)c1 [Compound 8-8, (S)-(2-(3-chlorobenzyl)pyrrolidin-1-yl)(3-hydroxyquinoxalin-2-yl)methanone]"
2,1.84 µM,"Cc1cccc(CC2CCCCCN2C(=O)c2nc3ccccc3nc2O)c1 (racemic) [Compound 1-91, (+/−)-(3-Hydroxyquinoxalin-2-yl)[2-(3-methylbenzyl)azepan-1-yl]methanone]"
3,0.002 µM,O=C(c1nc2ccc(C(F)(F)F)cc2nc1O)N1CCCC1Cc1cccc(F)c1 (stereo not shown) [Compound 1-163]
4,5.5 µM,"O=C(c1nc2ccccc2nc1O)N1CCCC(Cc2ccc(F)cc2)C1 (racemic) [Compound 1-88, (+/−)-[3-(4-Fluorobenzyl)piperidin-1-yl](3-hydroxyquinoxalin-2-yl)methanone]"
5,9 µM,"O=C(c1nc2ccccc2nc1O)N1CCCCCC1Cc1ccc(Cl)cc1 (racemic) [Compound 1-93, (+/−)-[2-(4-Chlorobenzyl)azepan-1-yl](3-hydroxyquinoxalin-2-yl)methanone]"
6,28.4 µM,CN(Cc1ccccc1)C(=O)c1nc2ccccc2nc1O [Compound 1-98]
7,11.3 µM,Cc1ccc(C(C)C)cc1N(C)C(=O)c1nc2ccccc2nc1O [Compound 1-124]
8,0.004 µM,O=C(c1nc2cc(Cl)c(Cl)cc2nc1O)N1CCC[C@H]1Cc1cc(Cl)cc(Cl)c1 [Compound 8-11]
9,10 µM,"Nc1nc2ccccc2nc1C(=O)N1CCCC1Cc1cccc(Cl)c1 (stereo not shown) [Compound 5-2, (3-aminoquinoxalin-2-yl)[2-(3-chlorobenzyl)pyrrolidin-1-yl]methanone]"
10,4.76 µM,"COc1ccc(CC2CCCCN2C(=O)c2nc3ccccc3nc2O)cc1 (racemic) [Compound 1-80, (+/−)-(3-Hydroxyquinoxalin-2-yl)[2-(4-methoxybenzyl)piperidin-1-yl]methanone]"
11,8.6 µM,"O=C(c1nc2ccccc2nc1O)N1CCCC(Cc2cccc(F)c2)C1 (racemic) [Compound 1-86, (+/−)-[3-(3-Fluorobenzyl)piperidin-1-yl](3-hydroxyquinoxalin-2-yl)methanone]"
12,2 µM,O=C(c1nc2ccccc2nc1O)N1CCCC1Cc1ccc(F)cc1 (stereo not shown) [Compound 1-158]
13,12.7 µM,CN(CCc1ccccc1)C(=O)c1nc2ccccc2nc1O [Compound 1-139]
14,23.2 µM,CC(C)CN(C)C(=O)c1nc2ccccc2nc1O [Compound 1-140]
15,0.004 µM,O=C(c1nc2cccc(Cl)c2nc1O)N1CCCC1Cc1ccc(Cl)c(Cl)c1 (stereo not shown) [Compound 1-162]
16,5 µM,"O=C(c1nc2ccccc2nc1O)N1CCC[C@@H]1Cc1cccc(Cl)c1 [Compound 8-9, (R)-(2-(3-chlorobenzyl)pyrrolidin-1-yl)(3-hydroxyquinoxalin-2-yl)methanone]"

# — patent US8889683B2, “Substituted quinoxalines as inhibitors of fatty acid binding protein” (Merck Sharp & Dohme Corp., priority 2010, dated 2014)
